In US6355799B1, “Substituted benzene compounds, process for their preparation, and herbicidal and defoliant compositions containing them” (ISK Americas Incorporated, priority 1997, dated 2002):

Assays:
Assay type in all cases: in vivo
[1] = tested on: upland rice (Oryza sp., var. Tebonnet, RICE); experiment: Post-emerge test, crop safety; settings: post-emerge, 14 days after application, rating scale 0-100
How it was run: (§1)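 Sandy loam pots; pre-emerge: sown 1 d pre-spray, surface-watered after, then bottom-watered. Post-emerge: sown 8–21 d before, 2–3 leaf stage, + 0.25% v/v NIS, bottom-watered. Acetone, 187 l/ha track spray, 15–1000 g ai/ha. 0–100 injury score, day 14.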

[2] = tested on: field corn (Zea mays L., var. Dekalb 535, CORN); experiment: Post-emerge test, crop safety; settings: post-emerge, 14 days after application, rating scale 0-100
How it was run: as §1

[3] = tested on: velvetleaf (Abutilon theophrasti, ABUTH); experiment: Post-emerge test, greenhouse herbicide activity screening; settings: post-emerge, 14 days after application, rating scale 0-100
How it was run: (§2)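 Compounds in acetone were track-sprayed at 15–1000 g ai/ha: pre-emergence onto soil sown the previous day, then top-watered to incorporate and later bottom-watered; post-emergence onto 2–3 leaf plants with 0.25% v/v surfactant, bottom-watered only. Ratings on a 0–100 phytotoxicity scale were taken at day 14.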

[4] = tested on: large crabgrass (Digitaria sanguinalis, DIGSA); experiment: as above; settings: post-emerge, 14 days after application, rating scale 0-100
How it was run: as §2

[5] = tested on: lambsquarters (Chenopodium album, CHEAL); experiment: as above; settings: post-emerge, 14 days after application, rating scale 0-100
How it was run: as §2

[6] = tested on: sicklepod (Cassia obtusifolia, CASOB); experiment: as above; settings: post-emerge, 14 days after application, rating scale 0-100
How it was run: as §2

[7] = tested on: barnyardgrass (Echinochloa crus-galli, ECHCG); experiment: as above; settings: post-emerge, 14 days after application, rating scale 0-100
How it was run: as §2

[8] = tested on: johnsongrass (Sorghum halepense, SORHA); experiment: as above; settings: post-emerge, 14 days after application, rating scale 0-100
How it was run: as §2

[9] = tested on: green foxtail (Setaria viridis, SETVI); experiment: as above; settings: post-emerge, 14 days after application, rating scale 0-100
How it was run: as §2

[10] = tested on: redroot pigweed (Amaranthus retroflexus, AMARE); experiment: as above; settings: post-emerge, 14 days after application
How it was run: as §2

[11] = tested on: ivyleaf morningglory (Ipomoea hederacea, IPOHE); experiment: as above; settings: post-emerge, 14 days after application, rating scale 0-100
How it was run: as §2

[12] = tested on: redroot pigweed (Amaranthus retroflexus, AMARE); experiment: Pre-emerge test, greenhouse herbicide activity screening; settings: phytotoxicity rating 0-100, 14 days after application
How it was run: as §1

[13] = tested on: upland rice (Oryza sp., var. Tebonnet, RICE); experiment: Pre-emerge test, crop safety; settings: crop damage rating 0-100, 14 days after application
How it was run: as §1

[14] = tested on: field corn (Zea mays L., var. Dekalb 535, CORN); experiment: Pre-emerge test, crop safety; settings: crop damage rating 0-100, 14 days after application
How it was run: as §1

[15] = tested on: velvetleaf (Abutilon theophrasti, ABUTH); experiment: Pre-emerge test, greenhouse herbicide activity screening; settings: phytotoxicity rating 0-100, 14 days after application
How it was run: as §1

[16] = tested on: large crabgrass (Digitaria sanguinalis, DIGSA); experiment: as above; settings: phytotoxicity rating 0-100, 14 days after application
How it was run: as §1

[17] = tested on: lambsquarters (Chenopodium album, CHEAL); experiment: as above; settings: phytotoxicity rating 0-100, 14 days after application
How it was run: as §1

[18] = tested on: sicklepod (Cassia obtusifolia, CASOB); experiment: as above; settings: phytotoxicity rating 0-100, 14 days after application
How it was run: as §1

[19] = tested on: barnyardgrass (Echinochloa crus-galli, ECHCG); experiment: as above; settings: phytotoxicity rating 0-100, 14 days after application
How it was run: as §1

[20] = tested on: johnsongrass (Sorghum halepense, SORHA); experiment: as above; settings: phytotoxicity rating 0-100, 14 days after application
How it was run: as §1

[21] = tested on: green foxtail (Setaria viridis, SETVI); experiment: as above; settings: phytotoxicity rating 0-100, 14 days after application
How it was run: as §1

[22] = tested on: ivyleaf morningglory (Ipomoea hederacea, IPOHE); experiment: as above; settings: phytotoxicity rating 0-100, 14 days after application
How it was run: as §1

For `COc1c(Cl)cc(F)c(-n2c(=O)cc(C(F)(F)F)n(C)c2=O)c1NC(=O)OCc1ccc(C)c(C)c1` [4-26], the “phytotoxicity rating RICE (crop damage)” value ([1]; 63 g ai/ha) was 15, the “phytotoxicity rating RICE (crop damage)” value ([1]; 250 g ai/ha) was 45 and the “phytotoxicity rating CORN (crop damage)” value ([2]; 63 g ai/ha) was 5. For the same compound, the “phytotoxicity rating CORN (crop damage)” value ([2]; 250 g ai/ha) was 20, the “phytotoxicity rating ABUTH” value ([3]; 63 g ai/ha) was 100 and the “phytotoxicity rating ABUTH” value ([3]; 250 g ai/ha) was 100. For the same compound, the “phytotoxicity rating DIGSA” value ([4]; 63 g ai/ha) was 20, the “phytotoxicity rating DIGSA” value ([4]; 250 g ai/ha) was 50 and the “phytotoxicity rating CHEAL” value ([5]; 63 g ai/ha) was 90. The “phytotoxicity rating CHEAL” value ([5]; 250 g ai/ha) was 100, the “phytotoxicity rating CASOB” value ([6]; 63 g ai/ha) was 30 and the “phytotoxicity rating CASOB” value ([6]; 250 g ai/ha) was 60. The “phytotoxicity rating ECHCG” value ([7]; 63 g ai/ha) was 10, the “phytotoxicity rating ECHCG” value ([7]; 250 g ai/ha) was 50 and the “phytotoxicity rating SORHA” value ([8]; 63 g ai/ha) was 10. The “phytotoxicity rating SORHA” value ([8]; 250 g ai/ha) was 50, the “phytotoxicity rating SETVI” value ([9]; 63 g ai/ha) was 20 and the “phytotoxicity rating SETVI” value ([9]; 250 g ai/ha) was 60. The “phytotoxicity rating AMARE” value ([10]; 63 g ai/ha, rating scale 0-100 (0 no damage, 100 complete death)) was 100, the “phytotoxicity rating AMARE” value ([10]; 250 g ai/ha, rating scale 0-100) was 100 and the “phytotoxicity rating IPOHE” value ([11]; 63 g ai/ha) was 100. For the same compound, the “phytotoxicity rating IPOHE” value ([11]; 250 g ai/ha) was 100, the “Pre-emerge Herbicidal Activity AMARE” value ([12]; 63 g ai/ha) was 70 and the “Pre-emerge Herbicidal Activity AMARE” value ([12]; 250 g ai/ha) was 100. For the same compound, the “Pre-emerge Herbicidal Activity RICE” value ([13]; 63 g ai/ha) was 0, the “Pre-emerge Herbicidal Activity RICE” value ([13]; 250 g ai/ha) was 45 and the “Pre-emerge Herbicidal Activity CORN” value ([14]; 63 g ai/ha) was 0. For the same compound, the “Pre-emerge Herbicidal Activity CORN” value ([14]; 250 g ai/ha) was 0, the “Pre-emerge Herbicidal Activity ABUTH” value ([15]; 63 g ai/ha) was 80 and the “Pre-emerge Herbicidal Activity ABUTH” value ([15]; 250 g ai/ha) was 100. The “Pre-emerge Herbicidal Activity DIGSA” value ([16]; 63 g ai/ha) was 10, the “Pre-emerge Herbicidal Activity DIGSA” value ([16]; 250 g ai/ha) was 90 and the “Pre-emerge Herbicidal Activity CHEAL” value ([17]; 63 g ai/ha) was 100. For the same compound, the “Pre-emerge Herbicidal Activity CHEAL” value ([17]; 250 g ai/ha) was 100, the “Pre-emerge Herbicidal Activity CASOB” value ([18]; 63 g ai/ha) was 0 and the “Pre-emerge Herbicidal Activity CASOB” value ([18]; 250 g ai/ha) was 0. For the same compound, the “Pre-emerge Herbicidal Activity ECHCG” value ([19]; 63 g ai/ha) was 0, the “Pre-emerge Herbicidal Activity ECHCG” value ([19]; 250 g ai/ha) was 30 and the “Pre-emerge Herbicidal Activity SORHA” value ([20]; 63 g ai/ha) was 0. The “Pre-emerge Herbicidal Activity SORHA” value ([20]; 250 g ai/ha) was 20, the “Pre-emerge Herbicidal Activity SETVI” value ([21]; 63 g ai/ha) was 75 and the “Pre-emerge Herbicidal Activity SETVI” value ([21]; 250 g ai/ha) was 95. For the same compound, the “Pre-emerge Herbicidal Activity IPOHE” value ([22]; 63 g ai/ha) was 0 and the “Pre-emerge Herbicidal Activity IPOHE” value ([22]; 250 g ai/ha) was 10.
